Assay results from US20260234165A1, “MACROCYCLIC COMPOUNDS, PREPARATION METHOD THEREFOR, AND USE THEREOF” (GENFLEET THERAPEUTICS (SHANGHAI) INC., priority 2004, published 2026).
Where two headings read alike, the source gives them in different places.

Key:
Type in all cases: cell-based, human
[1] = tested on: p-ERK in NCI-H441 cells (KRAS G12V mutation); assay: Cell p-ERK assay (HTRF) in NCI-H441 cells; settings: NCI-H441 cells, 3 h compound incubation, HTRF p-ERK T202/Y204, read-out: H441 p-ERK IC50
Procedure, shortened: (§1)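 Seed 10000 AsPC-1 or 20000 NCI-H441 cells/well, overnight 37 °C/5% CO2. Cpd 3.16-fold series, 0.1% DMSO final, 3 h. Lyse 30 min, HTRF p-ERK (T202/Y204) Ab 4 h. IC50: 4-parameter fit of IR% normalised to DMSO and blank.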

[2] = tested on: p-ERK in AsPC-1 cells (KRAS G12D mutation); assay: Cell p-ERK assay (HTRF) in AsPC-1 cells; settings: AsPC-1 cells, 3 h compound incubation, HTRF p-ERK T202/Y204, read-out: AsPC-1 p-ERK IC50
Procedure, shortened: as §1

[3] = tested on: AsPC-1 cells (KRAS G12D mutation); assay: 3D cell proliferation assay (CellTiter Glo-3D), AsPC-1; settings: medium with 2% FBS, read-out: AsPC-1 AP IC50
Excerpt: MIA PaCa-2 cells were purchased from ATCC, Cat. No. CRL-1420; AsPC-1 cells were purchased from ATCC, Cat. No. CRL-1682; NCI-H441 cells were purchased from ATCC, Cat. No. HTB-174: NCI-H1975 cells were purchased from ATCC. Cat. No. CRL-5908; DMEM medium was purchased from Gibco, Cat. No. 11995-065: RPMI-1040 medium was purchased from Gibco. Cat. No. H 18754093; FBS was purchased from Gibco, Cat. No. 10099-141C. penicillin, streptomycin double-antibiotic solution (PS) was purchased from Gibco, Cat. No. 15140-122; Horse serum was purchased from Gibco. Cat. No. 16050130: trypsin (containing EDTA) was purchased from Gibco, Cat. No. 25200-072; DMSO was purchased from VWRAMRESCO, Cat. No. 0231-500ML; 384-well cell culture plates were purchased from Corning, Cat. No. 3830; white-bottomed, opaque 384-well assay plates were purchased from Corning, Cat. No. 3570. CellTiter Glo-3D) kit was purchased from Promega. Cat. No. G9683; cell counter was purchased from CHEMOMETEC, model: NC-200: microplate reader was purchased from PerkinElmer, model: EnVision.
MIA PaCa-2, a human pancreatic cancer cell strain endogenously containing a KRAS^G12C mutation, was cultured in a complete medium containing DMEM+10% FBS+2.5% Horse serum+1% PS. AsPC-1, a human pancreatic cancer cell strain endogenously containing a […] mutation, was cultured in a complete medium containing RPMI-1640+10% FBS+1% PS. NCI-H441 cells, a human lung cancer cell strain endogenously containing a […] mutation, were cultured in a complete medium containing RPMI-1640+10% FBS+1% PS. NCI-H1975, a KRAS wild-type human lung cancer cell strain whose cell proliferation depends on KRAS activity, was cultured in a complete medium containing RPMI-1640+10% FBS+1% PS.
The cells were digested with trypsin (containing EDTA), collected in their respective low-serum complete media containing 2% FBS (for MIA Paca-2 cell culture: DMEM+2% FBS+0.5% Horse serum+1% PS), and counted. After the cell density was adjusted as required, 200 MIA PaCa-2 cells, 800 AsPC-1 cells, 800 NCI-H441 cells, or 400 NCI-H1975 cells per well were seeded into a 384-well cell culture plate, with the volume of the medium in each well being 45 μL. The cell culture plate was incubated in an incubator at 37° C. with 5% CO2, overnight. A series of 3.16-fold gradient dilutions of a 1000× compound stock solution were prepared with DMSO, and then diluted 100-fold with the complete medium containing 2% FBS described above to give 10- compound stock solutions. On the day after cell seeding, 5 μL of the 10- compound stock solution was added to each cell culture well. As a result, the final concentration of the compound in the cell culture well became 1×, and the DMSO content in the well was 0.1%. In addition to the compound-treated wells described above, cell-containing DMSO control wells (with 5 μL of the complete medium containing 1% DMSO added to each well) and cell-free medium control wells (containing 50 μL of the complete medium with 2% FBS) were also set. The culture plate was incubated in an incubator at 37° C. with 5% CO2 for another 5 days, and then 30 μL of CellTiter-Glo working solution was added to each well. The mixture was well mixed, incubated for 30 min, left to stand at room temperature for 30 min, and then transferred to a white-bottomed, opaque 384-well assay plate at 40 μL/well. The chemiluminescence values (RLU) were measured using a microplate reader, and the cell proliferation inhibition rate for each well was calculated: IR (%)=(RLUDMSO—RLUcompound)/(RLUDMSO−RLUblank)×100%, where RLUDMSO is the average RLU signal value from the DMSO control well samples, RLUblank is the average RLU signal value from the medium control well samples, and RLUcompound is the RLU signal value from the compound-treated well samples. […]

NCI-H441 cells = assay: 3D cell proliferation assay (CellTiter Glo-3D), NCI-H441; settings: medium with 2% FBS, read-out: H441 AP IC50
Procedure, shortened: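 Luminescent CellTiter-Glo 3D readout after 5-day compound exposure (3.16-fold series, 0.1% DMSO, 2% FBS medium) at 37°C on 800 cells/well plated the day before; IC50 from four-parameter curve of inhibition relative to DMSO and blank wells.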

[4] = 3D cell proliferation (CellTiter Glo-3D)
[5] = Homo sapiens, ASPC1, 3D cell proliferation (CellTiter Glo-3D)
[6] = Homo sapiens, NCI-H441, 3D cell proliferation (CellTiter Glo-3D)

| Compound | IC50 [1] | IC50 [2] | IC50 [3, 4] | IC50 (NCI-H441 cells; [4]) | IC50 ([1]; Homo sapiens, NCI-H441, 3 h) | IC50 ([2]; Homo sapiens, ASPC1, 3 h) | IC50 [3, 5] | IC50 (NCI-H441 cells; [6]) |
| --- | --- | --- | --- | --- | --- | --- | --- | --- |
| CCn1c(-c2cc(OCC(C)(C)N3CCS(=O)(=O)CC3)cnc2[C@H](C)OC)c2c3cc(ccc31)-c1csc(n1)C[C@H](NC(=O)[C@H]1[C@H](C)[C@@H]1C)C(=O)N1CCC[C@H](N1)C(=O)OCC(C)(C)C2 [Compound Z667A] | 1.6 nM | 2.6 nM | 2.97 nM | 1.31 nM | – | – | – | – |
| CCn1c(-c2cc(C#CCN3CCC(Nc4ccccc4P(C)(C)=O)CC3)cnc2[C@H](C)OC)c2c3cc(ccc31)-c1csc(n1)C[C@H](NC(=O)[C@H]1[C@H](C)[C@@H]1C)C(=O)N1CCC[C@H](N1)C(=O)OCC(C)(C)C2 (atropisomer, axis not shown; (Ra)) [Compound Z1062, (1r,2R,3S)—N-((6^35,4S,Z)-1^2-(5-(3-(4-((2-(dimethylphosphoryl)phenyl)amino)piperidin-1-yl)prop-1-yn-1-yl)-(Ra)-2-((S)-1-methoxyethyl)pyridin-3-yl)-1^1-ethyl-10,10-dimethyl-5,7-dioxo-6^1,6^2,6^3,6^4,6^5,6^6-hexahydro-1^1H-8-oxa-2(4,2)-thiazola-1(5,3)-indola-6(1,3)-pyridazinacycloundecaphane-4-yl)-2,3-dimethylcyclopropane-1-carboxamide] | – | – | – | – | 0.53 nM | 0.82 nM | 0.94 nM | 1.3 nM |
| CCn1c(-c2cc(OCCN3CCS(=O)(=O)CC3)cnc2[C@H](C)OC)c2c3cc(ccc31)-c1csc(n1)C[C@H](NC(=O)[C@H]1C[C@@H]1C)C(=O)N1CCC[C@H](N1)C(=O)OCC(C)(C)C2 (atropisomer, axis not shown; (Ra)) [Compound Z605] | 0.3 nM | 0.6 nM | 0.5 nM | 0.26 nM | – | – | – | – |
| CCn1c(-c2cc(N3CCN(C)CC3)cnc2[C@H](C)OC)c2c3cc(ccc31)-c1csc(n1)C[C@H](NC(=O)C(C)(C)F)C(=O)N1CCC[C@H](N1)C(=O)OCC(C)(C)C2 (single isomer, unassigned) [Compound Z5] | 4.24 nM | 2.81 nM | 19.5 nM | 12.3 nM | – | – | – | – |
| CCn1c(-c2cc(C3(C(=O)N4CCN(C)CC4)CC3)cnc2[C@H](C)OC)c2c3cc(ccc31)-c1csc(n1)C[C@H](NC(=O)[C@H]1[C@H](C)[C@@H]1C)C(=O)N1CCC[C@H](N1)C(=O)OCC(C)(C)C2 [Compound Z75, (1r,2R,3S)—N-((6^3S,4S,Z)-1^1-ethyl-1^2-(2-((S)-1-methoxyethyl)-5-(1-(4-methylpiperazine-1-carbonyl)cyclopropyl)pyridin-3-yl)-10,10-dimethyl-5,7-dioxo-6^1,6^2,6^3,6^4,6^5,6^6-hexahydro-1^1H-8-oxa-2(4,2)-thiazola-1(5,3)-indola-6(1,3)-pyridazinacycloundecaphane-4-yl)-2,3-dimethylcyclopropane-1-carboxamide] | – | – | – | – | 18.6 nM | 38.7 nM | 56.5 nM | 19.4 nM |

Further lines, results first:

| IC50 [1] | IC50 [2] | IC50 [3, 4] | IC50 (NCI-H441 cells; [4]) | IC50 ([1]; Homo sapiens, NCI-H441, 3 h) | IC50 ([2]; Homo sapiens, ASPC1, 3 h) | IC50 [3, 5] | IC50 (NCI-H441 cells; [6]) | Compound |
| --- | --- | --- | --- | --- | --- | --- | --- | --- |
| 11.2 nM | 13.4 nM | 30.4 nM | 18.4 nM | – | – | – | – | CCn1c(-c2cc(C#CCN3CCC3)cnc2[C@H](C)OC)c2c3cc(ccc31)-c1csc(n1)C[C@H](NC(=O)[C@H]1[C@H](C)[C@@H]1C)C(=O)N1CCC[C@H](N1)C(=O)OCC(C)(C)C2 (atropisomer, axis not shown; (Sa)) [Compound Z555, (1r,2R,3S)—N-((6^3S,4S,Z)—(Sa)-1^2-(5-(3-(azetidin-1-yl)prop-1-yn-1-yl)-2-((S)-1-methoxyethyl)pyridin-3-yl)-1^1-ethyl-10,10-dimethyl-5,7-dioxo-6^1,6^2,6^3,6^4,6^5,6^6-hexahydro-1^1H-8-oxa-2(4,2)-thiazola-1(5,3)-indola-6(1,3)-pyridazinacycloundecaphane-4-yl)-2,3-dimethylcyclopropane-1-carboxamide] |
| – | – | – | – | 0.71 nM | 0.48 nM | 0.82 nM | 0.67 nM | CO[C@@H](C)c1ncc(C#CCN2CCC2)cc1-c1c2c3cc(ccc3n1CC(F)(F)F)-c1csc(n1)C[C@H](NC(=O)[C@H]1[C@H](C)[C@@H]1C)C(=O)N1CCC[C@H](N1)C(=O)OCC(C)(C)C2 (atropisomer, axis not shown; (Ra)) [Compound Z362-2, (1r,2R,3S)—N-((6^3S,4S,Z)-1′-(5-(3-(azetidin-1-yl)prop-1-yn-1-yl)-(Ra)-2-((S)-1-methoxyethyl)pyridin-3-yl)-10,10-dimethyl-5,7-dioxo-1^1-(2,2,2-trifluoroethyl)-6^1,6^2,6^3,6^4,6^5,6^6-hexahydro-1^1H-8-oxa-2(4,2)-thiazola-1(5,3)-indola-6(1,3)-pyridazinacycloundecaphane-4-yl)-2,3-dimethylcyclopropane-1-carboxamide] |
| – | – | – | – | 1.22 nM | 2.14 nM | 4.14 nM | 1.68 nM | CCn1c(-c2cc(C#CCN3CCCOCC3)cnc2[C@H](C)OC)c2c3cc(ccc31)-c1csc(n1)C[C@H](NC(=O)CC1CC1(F)F)C(=O)N1CCC[C@H](N1)C(=O)OCC(C)(C)C2 (atropisomer, axis not shown; (Ra)) [Compound Z932] |
| – | – | – | – | 2.18 nM | 7.52 nM | 20.9 nM | 8.14 nM | CCn1c(-c2cc(C#CCN3CCCOCC3)cnc2[C@H](C)OC)c2c3cc(ccc31)-c1csc(n1)C[C@H](NP1(=O)CC(C)=C(C)C1)C(=O)N1CCC[C@H](N1)C(=O)OCC(C)(C)C2 (atropisomer, axis not shown; (Ra)) [Compound Z1032, (6^3S,4S,Z)—(Ra)-1^2-(5-(3-(1,4-oxazepan-4-yl)prop-1-yn-1-yl)-2-((S)-1-methoxyethyl)pyridin-3-yl)-4-((3,4-dimethyl-1-oxido-2,5-dihydrophosphol-1-yl)amino)-1^1-ethyl-10,10-dimethyl-6^1,6^2,6^3,6^4,6^5,6^6-hexahydro-1^1H-8-oxa-2(4,2)-thiazola-1(5,3)-indola-6(1,3)-pyridazinacycloundecaphane-5,7-dione] |
